Experimental findings from patent publication US9540323B2 (BRISTOL-MYERS SQUIBB COMPANY, priority 2012, dated 2017) are described below.

Assay [1] concerns human platelet rich plasma (PRP). Kind of assay: ADP induced platelet aggregation assay. Conditions: Homo sapiens, Platelet, 5 min, read-out: PA IC50 (μM) @ 10 μM ADP, human PRP, 10 μM ADP, AUC at 5 minute.
The target in assay [2] is cloned human P2Y1 receptors (Homo sapiens (Human), UniProt P47900). Description: Binding Assay A - membrane binding assay, [33P] 2MeS-ADP (WGA FlashPlate). Conditions: values marked * in Table 1; 0.5 nM [33P] 2MeS-ADP, Cheng-Prusoff; read-out: P2Y1 Ki (nM) using binding assay A. The source says:
A membrane binding assay was used to identify inhibitors of [^33P] […] The cDNA clone for human P2Y1 was obtained from Incyte Pharmaceuticals and its sequence confirmed by established techniques (for a compendium of techniques used see Ausubel, F. et al., Current Protocols in Molecular Biology, John Wiley and Sons, NY, NY (1995)). The essential coding sequences were subcloned into pCDNA 3.1 (Invitrogen) to produce a P2Y1 expression construct. This construct was then transfected into the human embryonic kidney cell line HEK-293 and stable transfectants selected in GENETICIN® (G418 sulfate; Life Technologies). […] Membranes were prepared by growing HEK293 #49 in 150 mm dishes in DMEM/10% FBS in the presence of 1 mg/ml G418 until cells were 80-90% confluent. Plates were then washed with cold (4° C.) D-PBS twice and cells harvested by scraping into 10 mL D-PBS. Cells were pelleted by centrifugation (1,000 g, 10 min, 4° C.) and the resulting pellet resuspended in Lysis Buffer (10 mM Tris (7.4), 5 mM MgCl2 containing Complete protease inhibitor cocktail (Roche Cat #1873580) as recommended by the manufacturer). The suspension was then homogenized in a Dounce homogenizer (10-15 strokes; B pestle, on ice) and the homogenate spun at 1,000 g, 4° C., 5 min to pellet large debris. The supernatant was centrifuged at 150,000 g, 4° C., for 1 hour and the resulting membrane pellet resuspended in 0.5-1 mL of Buffer B (15 mM HEPES (7.4), 145 mM NaCl, 0.1 mM MgCl2, 5 mM EDTA, 5 mM KCl) and stored at −70° C. until used.
Binding reactions were performed in WGA FLASHPLATE®s (PerkinElmer Life Sciences, Cat # SMP105A) in a volume of 200 μL containing ˜45 fmol of P2Y1 receptor (5 μg of total protein), 0.5 nM [^33P] […] Reactions were allowed to proceed to completion at room temperature for 1 hour and then the aqueous solution aspirated. Plates were sealed and the residual [^33P] bound to the plate determined by scintillation counting.

cloned human P2Y1 receptors, sequence (P47900 whole entry): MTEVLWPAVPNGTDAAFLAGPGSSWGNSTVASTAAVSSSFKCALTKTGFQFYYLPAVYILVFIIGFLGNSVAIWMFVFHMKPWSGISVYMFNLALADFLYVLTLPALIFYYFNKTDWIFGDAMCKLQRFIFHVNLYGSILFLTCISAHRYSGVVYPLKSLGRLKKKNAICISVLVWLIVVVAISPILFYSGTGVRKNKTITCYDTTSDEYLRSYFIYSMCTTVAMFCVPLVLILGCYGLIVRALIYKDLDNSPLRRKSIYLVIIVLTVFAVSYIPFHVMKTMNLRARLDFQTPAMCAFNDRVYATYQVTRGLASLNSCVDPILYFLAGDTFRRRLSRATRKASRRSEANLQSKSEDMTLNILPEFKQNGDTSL

For orientation: IC50 means the concentration that inhibits the measured activity by half. For orientation: Ki means a measure of affinity in units of concentration, obtained from inhibition or displacement. Consider `CC1(C)CN(c2ccccc2NC(=O)Nc2ccc(OC(F)(F)F)cc2)c2c(O)ccc(-c3nc4ccc(F)cc4s3)c21` [Example 174, 1-(2-(4-(6-Fluorobenzo[d]thiazol-2-yl)-7-hydroxy-3,3-dimethylindolin-1-yl)phenyl)-3-(4-(trifluoromethoxy)phenyl)urea], for which, in assay [1], the IC50 was determined as 0.32 µM. The inhibitory constant (Ki) in assay [2] worked out at 6.3 nM.

As for `CC(C)c1nc(-c2ccc(O)c3c2C(C)(C)CN3c2ccccc2NC(=O)Nc2ccc(OC(F)(F)F)cc2)cs1` [Example 127, 1-(2-(7-Hydroxy-4-(2-isopropylthiazol-4-yl)-3,3-dimethylindolin-1-yl)phenyl)-3-(4-(trifluoromethoxy)phenyl)urea], the IC50 in assay [1] is 0.28 µM. Moreover, the Ki in assay [2] was 4.7 nM.

Regarding `CC1(C)CN(c2ccccc2NC(=O)Nc2nc3ccc(Cl)nc3s2)c2c(O)ccc(-c3nc4cc(F)ccc4s3)c21` [Example 173, 1-(5-Chlorothiazolo[5,4-b]pyridin-2-yl)-3-(2-(4-(5-fluorobenzo[d]thiazol-2-yl)-7-hydroxy-3,3-dimethylindolin-1-yl)phenyl)urea], the IC50 in assay [1] was determined as 0.5 µM. Besides, the Ki in assay [2] worked out at 20.7 nM.

In the case of `CC1(C)CN(c2ccccc2NC(=O)Nc2ccc(OC(F)(F)F)cc2)c2c(O)ccc(-c3ccc(C(F)(F)F)cn3)c21` [Example 125, 1-(2-(7-Hydroxy-3,3-dimethyl-4-(5-(trifluoromethyl)pyridin-2-yl)indolin-1-yl)phenyl)-3-(4-(trifluoromethoxy)phenyl)urea], in assay [1], the IC50 was 0.15 µM. The Ki in assay [2] came out at 4.8 nM.

For the molecule `CC1(C)CN(c2ccccc2NC(=O)Nc2ccc(OC(F)(F)F)cc2)c2c(O)ccc(-c3nccs3)c21` [Example 124, 1-(2-(7-Hydroxy-3,3-dimethyl-4-(thiazol-2-yl)indolin-1-yl)phenyl)-3-(4-(trifluoromethoxy)phenyl)urea], the IC50 in assay [1] was 0.82 µM. Also, in assay [2], the Ki came out at 3.4 nM.

`CCC1(CC)CN(c2ccccc2NC(=O)Nc2nc3ccc(F)cc3s2)c2c(O)ccc(Cl)c21` [Example 49, 1-(2-(4-Chloro-3,3-diethyl-7-hydroxyindolin-1-yl)phenyl)-3-(6-fluorobenzo[d]thiazol-2-yl)urea]: the IC50 in assay [1] was found to be 0.18 µM. Moreover, the Ki in assay [2] worked out at 6.6 nM.
